The series relates to rodent carcinogenicity bioassays, tumor incidence. Put plainly: CCRIS carcinogenicity studies. In short, it runs like this: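 Archive of carcinogenicity, mutagenicity, tumor promotion and tumor inhibition results drawn from journals, NCI reports and other sources, expert-reviewed; covers 1985-2011 and is no longer updated.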

The source made the active and inactive calls. The rule behind the calls is not given here.

As to `CCOC(N)=O`, the carcinogen call was “active; positive” (Species: MOUSE, Strain/Sex: ICR/FEMALE, Route: INHALATION, Dose: 0, 0.25 UG/ML AIR FOR 5 D (TOTAL DOSE 1.25 UG/ML/D) (STUDY DURATION: 5 MO), Tumor Site: Type of Lesion: LUNG: TUMOR, HEMATOPOIETIC SYSTEM: LEUKEMIA); “active; positive” (Species: MOUSE, Strain/Sex: ICR/FEMALE, Route: INHALATION, Dose: 0, 0.25 UG/ML AIR FOR 10 D (TOTAL DOSE 2.5 UG/ML/D) (STUDY DURATION: 5 MO), Tumor Site: Type of Lesion: LUNG: TUMOR); “active; positive” (Species: MOUSE, Strain/Sex: ICR/FEMALE, Route: INHALATION, Dose: 0, 1.29 UG/ML AIR FOR 0.25 D (TOTAL DOSE 0.32 UG/ML/D) (STUDY DURATION: 5 MO), Tumor Site: Type of Lesion: LUNG: TUMOR, HEMATOPOIETIC SYSTEM: LEUKEMIA); “active; positive” (Species: MOUSE, Strain/Sex: ICR/FEMALE, Route: INHALATION, Dose: 0, 1.29 UG/ML AIR FOR 1 D (TOTAL DOSE 1.29 UG/ML/D) (STUDY DURATION; 5 MO), Dose: 0, 1.29 UG/ML AIR FOR 1 D (TOTAL DOSE 1.29 UG/ML/D) (STUDY DURATION; 5 MO), Tumor Site: Type of Lesion: LUNG: TUMOR, HEMATOPOIETIC SYSTEM: LEUKEMIA); “active; positive” (Species: MOUSE, Strain/Sex: ICR/FEMALE, Route: INHALATION, Dose: 0, 1.29 UG/ML AIR FOR 2 D (TOTAL DOSE 2.58 UG/ML/D) (STUDY DURATION: 5 MO), Tumor Site: Type of Lesion: LUNG: TUMOR, HEMATOPOIETIC SYSTEM: LEUKEMIA); “active; positive” (Species: MOUSE, Strain/Sex: ICR/FEMALE, Route: INHALATION, Dose: 0, 1.29 UG/ML AIR FOR 4 D (TOTAL DOSE 5.16 UG/ML/D) (STUDY DURATION: 5 MO), Tumor Site: Type of Lesion: LUNG: TUMOR, HEMATOPOIETIC SYSTEM: LEUKEMIA). In addition, the carcinogen call (Species: MOUSE, Strain/Sex: ICR/FEMALE, Route: INHALATION, Dose: 0, 1.29 UG/ML AIR FOR 5 D (TOTAL DOSE 6.45 UG/ML/D) (STUDY DURATION: 5 MO), Tumor Site: Type of Lesion: LUNG: TUMOR, HEMATOPOIETIC SYSTEM: LEUKEMIA) is “active; positive”; the carcinogen call (Species: MOUSE, Strain/Sex: ICR/MALE, Route: INHALATION, Dose: 0, 0.25 UG/ML AIR FOR 10 D (TOTAL DOSE 2.5 UG/ML/D) (STUDY DURATION: 12 MO), Tumor Site: Type of Lesion: LUNG: ADENOCARCINOMA, HEMATOPOIETIC SYSTEM: LEUKEMIA, LIVER: HEPATOMA, Tumor Site: Type of Lesion: LUNG: ADENOCARCINOMA, HEMATOPOIETIC SYSTEM: LEUKEMIA, LIVER: HEPATOMA) is “active; positive”; the carcinogen call (Species: MOUSE, Strain/Sex: ICR/MALE, Route: INHALATION, Dose: 0, 1.29 UG/ML AIR FOR 4 D (TOTAL DOSE 5.16 UG/ML/D) (STUDY DURATION: 12 MO), Tumor Site: Type of Lesion: LUNG: ADENOCARCINOMA, HEMATOPOIETIC SYSTEM: LEUKEMIA, LIVER: HEPATOMA, Tumor Site: Type of Lesion: LUNG: ADENOCARCINOMA, HEMATOPOIETIC SYSTEM: LEUKEMIA, LIVER: HEPATOMA) was “active; positive”; the carcinogen call (Species: MOUSE, Strain/Sex: STRAIN-A/MALE, Route: INTRAPERITONEAL, Dose: 0, 1.12, 4.6 MMOL/KG IN ISOTONIC SALINE ONCE AT 6 WK OF AGE (STUDY DURATION: 16 WK), Dose: 0, 1.12, 4.6 MMOL/KG IN ISOTONIC SALINE ONCE AT 6 WK OF AGE (STUDY DURATION: 16 WK), Tumor Site: Type of Lesion: LUNG: ADENOMA) was “active; positive”; the carcinogen call (Species: MOUSE, Strain/Sex: SWISS WEBSTER/FEMALE, Route: INTRAVENOUS, Dose: 0, 3.3 MMOL ONCE ADMINISTERED TO VIRGIN FEMALES AT 12 WK OF AGE (STUDY DURATION: 6 MO), Tumor Site: Type of Lesion: LUNG: ADENOMA) was “active; positive”; the carcinogen call (Species: MOUSE, Strain/Sex: SWISS WEBSTER/FEMALE, Route: INTRAVENOUS, Dose: 0, 3.3 MMOL/KG ONCE ADMINISTERED TO MOTHERS ON GESTATIONAL DAY 14 (STUDY DURATION: 6 MO), Tumor Site: Type of Lesion: LUNG: ADENOMA) is “active; positive”. Also, the carcinogen call is “active; positive” (Species: MOUSE, Strain/Sex: SWISS WEBSTER/FEMALE, Route: TRANSPLACENTAL, Dose: 0, 3.3 MMOL/KG ONCE BY INTRAVENOUS ADMINISTRATION TO MOTHERS ON GESTATIONAL DAY 14 (STUDY DURATION: 6 MO), Tumor Site: Type of Lesion: LUNG: ADENOMA); “active; positive” (Species: MOUSE, Strain/Sex: SWISS WEBSTER/MALE, Route: TRANSPLACENTAL, Dose: 0, 3.3 MMOL/KG ONCE BY INTRAVENOUS ADMINISTRATION TO MOTHERS ON GESTATIONAL DAY 14 (STUDY DURATION: 6 Mo), Tumor Site: Type of Lesion: LUNG: ADENOMA); “active; positive” (Species: MOUSE, Strain/Sex: SWISS/MALE,FEMALE, Route: ORAL, Dose: 0, 0.4% IN DRINKING WATER, 2 10-D TREATMENTS, Dose: 0, 0.4% IN DRINKING WATER, 2 10-D TREATMENTS, Tumor Site: Type of Lesion: LUNG: ADENOMA, LYMPHOMA, LIVER: HEMANGIOMA, INTEGUMENTARY SYSTEM (SKIN): PAPILLOMA, SEBACEOUS CARCINOMA, Tumor Site: Type of Lesion: LUNG: ADENOMA, LYMPHOMA, LIVER: HEMANGIOMA, INTEGUMENTARY SYSTEM (SKIN): PAPILLOMA, SEBACEOUS CARCINOMA); “inactive; negative” (Species: Mouse, Strain/Sex: 129 x MF1 Gstp-null (12-16 males and females), Route: Intraperitoneal, Dose: 10 mg/kg, once, study duration 5 mo, Tumor Site: Type of Lesion: Lung: adenoma (incidence 92% vs 27% in controls, multiplicity 3.8 vs 0.3 in controls)); “inactive; negative” (Species: Mouse, Strain/Sex: 129 x MF1 wild type (14-16 males and females), Route: Intraperitoneal, Dose: 10 mg/kg, once, study duration 5 mo, Tumor Site: Type of Lesion: Lung: adenoma (incidence 29% vs 25% in controls, multiplicity 0.4 vs 0.3 in controls)); “active; positive” (Species: RAT, Route: INTRAPERITONEAL, ORAL, Tumor Site: Type of Lesion: LIVER). Also, the carcinogen call runs as follows: (Species: RAT, Route: INTRAPERITONEAL, Tumor Site: Type of Lesion: LIVER, NERVOUS SYSTEM) “active; positive”; (Species: RAT, Route: SUBCUTANEOUS, Tumor Site: Type of Lesion: EYE (IRIS)) “active; positive”.

The record behind these values is PubChem BioAssay AID1259411 (Chemical Carcinogenesis Research Information System (CCRIS), 2018).
